Molecular target: T1, dopamine D2 receptors (Homo sapiens, UniProt P14416)
T1 construct: host or cells: CHO-K1 (GeneBLAzer D2-Gqo5-NFAT-bla)
Assay: Dopamine D2 receptor agonist assay (GeneBLAzer D2-Gqo5-NFAT-bla CHO-K1 reporter)
Type: cell-based
Conditions: CHO cells stably expressing dopamine D2 receptors; NA: no activity; read-out: Dopamine D2 receptor agonist (DA) activity EC50
Protocol: CHO-K1 cells were spread in 384-well plates at 10,000 cells/32 μL/well, taking care not to touch the bottom of the wells. Cell-free-wells were injected with the same volume (32 μL) of assay medium. The plates were then incubated in a CO2 incubator for 16–20 h. […] The diluted solution (8 μL/well) was added to 384-well plates seeded with CHO-K1 cells and incubated in a CO2 incubator for 5 h. […] The addition of the drug induces D2 receptor activation, which activates signaling pathways and transcription factors, resulting in the expression of a reporter gene (β-lactamase) and cleavage of the fluorescence resonance energy transfer (FRET) substrate, causing the fluorescence to change from green to blue.

T1 sequence (P14416 whole entry): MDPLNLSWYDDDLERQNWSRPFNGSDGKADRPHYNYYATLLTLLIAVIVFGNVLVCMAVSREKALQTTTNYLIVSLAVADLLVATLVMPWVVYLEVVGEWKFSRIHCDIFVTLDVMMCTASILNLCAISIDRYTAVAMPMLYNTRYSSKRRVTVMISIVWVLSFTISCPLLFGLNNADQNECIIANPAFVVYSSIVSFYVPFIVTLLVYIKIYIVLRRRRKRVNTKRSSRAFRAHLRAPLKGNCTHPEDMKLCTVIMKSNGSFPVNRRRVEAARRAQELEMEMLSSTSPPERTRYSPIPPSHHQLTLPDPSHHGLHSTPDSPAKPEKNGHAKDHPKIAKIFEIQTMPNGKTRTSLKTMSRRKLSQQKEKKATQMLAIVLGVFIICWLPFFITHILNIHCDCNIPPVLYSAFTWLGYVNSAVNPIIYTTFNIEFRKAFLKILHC

Q: `CN1CCc2cccc3c2[C@H]1Cc1ccc(OCCCN)c(O)c1-3` [D27, (9R)-4-(3-aminopropoxy)-10-methyl-10-azatetracyclo[7.7.1.0²,⁷.0¹³,¹⁷]heptadeca-1(17),2,4,6,13,15-hexaen-3-ol] was tested. Which EC50 did it give?
A: 254 nM

Q: Which EC50 does the source give for `CN1CCc2cccc3c2[C@H]1Cc1ccc(OCCCO)c(O)c1-3` [D38, (9R)-4-(3-hydroxypropoxy)-10-methyl-10-azatetracyclo[7.7.1.0²,⁷.0¹³,¹⁷]heptadeca-1(17),2,4,6,13,15-hexaen-3-ol] here?
A: 3650 nM

Q: With `Oc1ccc2c(c1O)-c1cccc3c1[C@@H](C2)NCC3` [D4, (9R)-10-azatetracyclo[7.7.1.0²,⁷.0¹³,¹⁷]heptadeca-1(17),2,4,6,13,15-hexaene-3,4-diol] as the molecule, how does the EC50 read?
A: 582 nM

System: GDF-15
Assay: GDF-15 levels in the cell supernatant (ELISA)
Type: cell-based, human
Conditions: 24 h after co-administration with RSL3, compared to RSL3-only
Protocol: GDF-15 is a biomarker that is elevated in the blood of patients with mitochondrial diseases and is used for the diagnosis of mitochondrial diseases and determination of therapeutic efficacy[26],[36]. […] As previously reported, GDF-15 levels were measured by an enzyme-linked immuno sorbent assay (ELISA) using the Quantikin Human GDF-15 ELISA Kit (R&D Systems, Minneapolis, MN, USA). Samples were obtained from anti-RSL3-induced cell death assays with candidate compounds (D31, D55, and D40), and cell supernatants 24 h after reagent addition were used for the assay. Measured values were calculated with reference to internal standards and compared to GDF-15 values.

Q: Which “GDF-15 elevation in cell supernatant” value does the source give for `CCOC(=O)c1ccc(NC2CCCCC2)c(N)c1` [ferrostatin-1, reference compound] here?
A: significant decrease

System: LS patient-derived skin fibroblasts
Assay: Anti-BSO-induced cell death activity assay
Conditions: Homo sapiens, Skin fibroblast, 48 h, read-out: Anti-BSO-induced cell death effect EC50, co-added with BSO at a concentration giving 10%-20% cell viability; viable cells 48 h after addition

Q: With `COc1cc2c(cc1O)C[C@@H]1c3c(cc(O)c(OC)c3-2)CCN1C` [D19, (9R)-4,16-dimethoxy-10-methyl-10-azatetracyclo[7.7.1.0²,⁷.0¹³,¹⁷]heptadeca-1(17),2,4,6,13,15-hexaene-5,15-diol] as the molecule, how does the EC50 read?
A: 5180 nM

Q: With `COc1cc(O)c2c(c1)C[C@@H]1c3c(cc4c(c3-2)OCO4)CCN1C` [D10, (12R)-16-methoxy-11-methyl-3,5-dioxa-11-azapentacyclo[10.7.1.0²,⁶.0⁸,²⁰.0¹⁴,¹⁹]icosa-1(20),2(6),7,14,16,18-hexaen-18-ol] as the molecule, how does the EC50 read?
A: 750 nM

Q: Which EC50 does the source give for `COc1cccc2c1C[C@@H]1c3c(cc4c(c3-2)OCO4)CCN1C` [D9, (12R)-15-methoxy-11-methyl-3,5-dioxa-11-azapentacyclo[10.7.1.0²,⁶.0⁸,²⁰.0¹⁴,¹⁹]icosa-1(20),2(6),7,14,16,18-hexaene] here?
A: 393 nM

Q: `CN1CCc2cccc3c2[C@H]1Cc1ccc(OCCCN)c(O)c1-3` [D27, (9R)-4-(3-aminopropoxy)-10-methyl-10-azatetracyclo[7.7.1.0²,⁷.0¹³,¹⁷]heptadeca-1(17),2,4,6,13,15-hexaen-3-ol] was tested. Which EC50 did it give?
A: 221 nM

Q: Which EC50 does the source give for `CN1CCc2cccc3c2[C@H]1Cc1ccc(OCCCc2ccccc2)c(O)c1-3` [D37, (9R)-10-methyl-4-(3-phenylpropoxy)-10-azatetracyclo[7.7.1.0²,⁷.0¹³,¹⁷]heptadeca-1(17),2,4,6,13,15-hexaen-3-ol] here?
A: 186 nM

Q: How did the EC50 turn out when `CN1CCc2cccc3c2[C@H]1Cc1ccc(OCCC(c2ccccc2)c2ccccc2)c(O)c1-3` [D54, (9R)-4-(3,3-diphenylpropoxy)-10-methyl-10-azatetracyclo[7.7.1.0²,⁷.0¹³,¹⁷]heptadeca-1(17),2,4,6,13,15-hexaen-3-ol] was run?
A: 497 nM

Q: How did the EC50 turn out when `COc1cc2c(cc1OC)-c1c3c(c(OC)c4c1C(C2)N(C)CC4)OCO3` (centres unmarked) [D20, 7,16,17-trimethoxy-11-methyl-3,5-dioxa-11-azapentacyclo[10.7.1.0²,⁶.0⁸,²⁰.0¹⁴,¹⁹]icosa-1(20),2(6),7,14,16,18-hexaene] was run?
A: 798 nM

Q: For `CCCN1CCc2cccc3c2[C@H]1Cc1ccc2c(c1-3)OCO2` [D5, (12R)-13-propyl-4,6-dioxa-13-azapentacyclo[10.7.1.0²,¹⁰.0³,⁷.0¹⁶,²⁰]icosa-1(20),2,7,9,16,18-hexaene], which EC50 is on record?
A: 2110 nM

Q: With `CN1CCc2cccc3c2[C@H]1Cc1ccc(OCCCCc2ccccc2)c(O)c1-3` [D50, (9R)-10-methyl-4-(4-phenylbutoxy)-10-azatetracyclo[7.7.1.0²,⁷.0¹³,¹⁷]heptadeca-1(17),2,4,6,13,15-hexaen-3-ol] as the molecule, how does the EC50 read?
A: 207 nM

Q: Which EC50 does the source give for `CN1CCc2cccc3c2[C@H]1Cc1ccc(OCCCO)c(O)c1-3` [D38, (9R)-4-(3-hydroxypropoxy)-10-methyl-10-azatetracyclo[7.7.1.0²,⁷.0¹³,¹⁷]heptadeca-1(17),2,4,6,13,15-hexaen-3-ol] here?
A: 165 nM

Q: `CCCCOc1ccc2c(c1O)-c1cccc3c1[C@@H](C2)N(C)CC3` [D36, (9R)-4-butoxy-10-methyl-10-azatetracyclo[7.7.1.0²,⁷.0¹³,¹⁷]heptadeca-1(17),2,4,6,13,15-hexaen-3-ol] was tested. Which EC50 did it give?
A: 123 nM

Q: With `COc1cc2c(cc1OC)-c1c(OC)c(OC)cc3c1[C@@H](C2)N(C)CC3` [D11, (9R)-4,5,15,16-tetramethoxy-10-methyl-10-azatetracyclo[7.7.1.0²,⁷.0¹³,¹⁷]heptadeca-1(17),2,4,6,13,15-hexaene] as the molecule, how does the EC50 read?
A: 6920 nM

Q: Which EC50 does the source give for `COc1cc2c3c(c1O)-c1c(ccc(OC)c1OC)C[C@H]3N(C)CC2` [D26, (9R)-3,4,15-trimethoxy-10-methyl-10-azatetracyclo[7.7.1.0²,⁷.0¹³,¹⁷]heptadeca-1(17),2,4,6,13,15-hexaen-16-ol] here?
A: 289 nM

Q: How did the EC50 turn out when `CN1CCc2cccc3c2[C@H]1Cc1ccc(OCCc2ccccc2)c(O)c1-3` [D48, (9R)-10-methyl-4-(2-phenylethoxy)-10-azatetracyclo[7.7.1.0²,⁷.0¹³,¹⁷]heptadeca-1(17),2,4,6,13,15-hexaen-3-ol] was run?
A: 128 nM

Q: For `COc1ccc2c(c1OC)C[C@@H]1c3c(cc4c(c3-2)OCO4)CCN1C` [D8, (12R)-15,16-dimethoxy-11-methyl-3,5-dioxa-11-azapentacyclo[10.7.1.0²,⁶.0⁸,²⁰.0¹⁴,¹⁹]icosa-1(20),2(6),7,14,16,18-hexaene], which EC50 is on record?
A: 180 nM

Q: How did the EC50 turn out when `CN1CCc2cc3c(c4c2[C@@H]1Cc1ccccc1-4)OCO3` [D18, (12S)-11-methyl-3,5-dioxa-11-azapentacyclo[10.7.1.0²,⁶.0⁸,²⁰.0¹⁴,¹⁹]icosa-1(20),2(6),7,14,16,18-hexaene] was run?
A: 492 nM

Q: For `CN1CCc2cccc3c2[C@H]1Cc1ccc(O)c(O)c1-3` [D15, (9R)-10-methyl-10-azatetracyclo[7.7.1.0²,⁷.0¹³,¹⁷]heptadeca-1(17),2,4,6,13,15-hexaene-3,4-diol, reference compound], which EC50 is on record?
A: 613 nM

Q: With `CN1CCc2cccc3c2[C@H]1Cc1ccc(OCCCCl)c(O)c1-3` [D39, (9R)-4-(3-chloropropoxy)-10-methyl-10-azatetracyclo[7.7.1.0²,⁷.0¹³,¹⁷]heptadeca-1(17),2,4,6,13,15-hexaen-3-ol] as the molecule, how does the EC50 read?
A: 259 nM

Q: For `CCCN1CCc2cccc3c2[C@H]1Cc1ccc(O)c(O)c1-3` [D3, (9R)-10-propyl-10-azatetracyclo[7.7.1.0²,⁷.0¹³,¹⁷]heptadeca-1(17),2,4,6,13,15-hexaene-3,4-diol], which EC50 is on record?
A: 186 nM

Q: For `Oc1ccc2c(c1O)-c1cccc3c1[C@@H](C2)NCC3` [D4, (9R)-10-azatetracyclo[7.7.1.0²,⁷.0¹³,¹⁷]heptadeca-1(17),2,4,6,13,15-hexaene-3,4-diol], which EC50 is on record?
A: 1990 nM

Q: For `CCCCCCCCCOc1ccc2c(c1O)-c1cccc3c1[C@@H](C2)N(C)CC3` [D41, (9R)-10-methyl-4-(nonyloxy)-10-azatetracyclo[7.7.1.0²,⁷.0¹³,¹⁷]heptadeca-1(17),2,4,6,13,15-hexaen-3-ol], which EC50 is on record?
A: 648 nM

Q: `CN1CCc2cccc3c2[C@@H]1Cc1ccc(O)c(O)c1-3` [D24, (9S)-10-methyl-10-azatetracyclo[7.7.1.0²,⁷.0¹³,¹⁷]heptadeca-1(17),2(7),3,5,13,15-hexaene-3,4-diol] was tested. Which EC50 did it give?
A: 1030 nM

Q: Which EC50 does the source give for `COc1cc2c(cc1O)CC1NCCc3cc(OC)c(OC)c-2c31` (centres unmarked) [D25, 4,15,16-trimethoxy-10-azatetracyclo[7.7.1.0²,⁷.0¹³,¹⁷]heptadeca-1(17),2(7),3,5,13,15-hexaen-5-ol] here?
A: 2050 nM

Q: `CN1CCc2cccc3c2[C@H]1Cc1ccc(OCCCC(F)(F)F)c(O)c1-3` [D42, (9R)-10-methyl-4-(4,4,4-trifluorobutoxy)-10-azatetracyclo[7.7.1.0²,⁷.0¹³,¹⁷]heptadeca-1(17),2,4,6,13,15-hexaen-3-ol] was tested. Which EC50 did it give?
A: 167 nM

Q: For `CN1CCc2cccc3c2[C@H]1Cc1ccc(OCc2ccccc2)c(O)c1-3` [D47, (9R)-4-(benzyloxy)-10-methyl-10-azatetracyclo[7.7.1.0²,⁷.0¹³,¹⁷]heptadeca-1(17),2,4,6,13,15-hexaen-3-ol], which EC50 is on record?
A: 124 nM

From article PMC11109252, “Synthetic aporphine alkaloids are potential therapeutics for Leigh syndrome” (Scientific Reports, 2024)
